EC50 and Kd data for two compounds are collected here from ChEMBL document CHEMBL1129189 (Bioorg Med Chem Lett, 1996).

The structures appear in SMILES notation.

In experiment [1] the target is T1, Retinoic acid receptor beta (Homo sapiens, UniProt P10826).
T1 sequence (P10826 whole entry): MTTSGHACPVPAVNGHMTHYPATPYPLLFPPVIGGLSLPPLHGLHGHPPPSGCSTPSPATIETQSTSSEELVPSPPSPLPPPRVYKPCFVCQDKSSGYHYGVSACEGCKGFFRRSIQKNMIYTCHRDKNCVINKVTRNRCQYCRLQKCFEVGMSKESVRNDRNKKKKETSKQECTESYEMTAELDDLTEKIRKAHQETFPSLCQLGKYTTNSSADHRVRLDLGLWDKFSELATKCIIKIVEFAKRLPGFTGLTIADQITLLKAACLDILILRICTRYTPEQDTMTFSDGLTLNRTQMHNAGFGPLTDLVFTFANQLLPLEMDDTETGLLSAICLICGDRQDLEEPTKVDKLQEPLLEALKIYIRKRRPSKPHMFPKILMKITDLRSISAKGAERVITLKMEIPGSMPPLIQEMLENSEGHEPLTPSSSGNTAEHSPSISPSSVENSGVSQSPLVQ
Put plainly: Compound was tested for functional activity in CV-1 cells transfected with an expression vector for retinoic acid receptor beta using transactivation assay. The format is cell-based.

Experiment [2] has as its target T2, Retinoic acid receptor RXR-gamma (Homo sapiens, UniProt P48443).
T2 sequence (P48443 whole entry): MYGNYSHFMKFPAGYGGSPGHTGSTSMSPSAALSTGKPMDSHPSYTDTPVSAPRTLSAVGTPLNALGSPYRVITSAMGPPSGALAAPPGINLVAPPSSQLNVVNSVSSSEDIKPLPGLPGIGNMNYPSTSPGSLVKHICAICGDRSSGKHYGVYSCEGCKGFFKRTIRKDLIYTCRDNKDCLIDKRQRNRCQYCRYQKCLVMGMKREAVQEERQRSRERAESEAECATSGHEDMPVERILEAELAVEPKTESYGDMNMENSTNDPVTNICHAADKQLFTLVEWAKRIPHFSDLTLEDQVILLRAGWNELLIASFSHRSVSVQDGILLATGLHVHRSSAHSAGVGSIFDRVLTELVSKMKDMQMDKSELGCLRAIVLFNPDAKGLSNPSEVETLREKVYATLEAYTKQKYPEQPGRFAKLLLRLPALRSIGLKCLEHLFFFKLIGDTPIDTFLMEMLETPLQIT
Put plainly: (§1) Compound was tested for binding affinity against retinoid X receptor using 5 nM of [3H]9-cis-RA as a radioligand in baculovirus expressed receptor.

Experiment [3] addresses T3, Retinoic acid receptor RXR-beta (Homo sapiens, UniProt P28702).
T3 sequence (P28702 whole entry): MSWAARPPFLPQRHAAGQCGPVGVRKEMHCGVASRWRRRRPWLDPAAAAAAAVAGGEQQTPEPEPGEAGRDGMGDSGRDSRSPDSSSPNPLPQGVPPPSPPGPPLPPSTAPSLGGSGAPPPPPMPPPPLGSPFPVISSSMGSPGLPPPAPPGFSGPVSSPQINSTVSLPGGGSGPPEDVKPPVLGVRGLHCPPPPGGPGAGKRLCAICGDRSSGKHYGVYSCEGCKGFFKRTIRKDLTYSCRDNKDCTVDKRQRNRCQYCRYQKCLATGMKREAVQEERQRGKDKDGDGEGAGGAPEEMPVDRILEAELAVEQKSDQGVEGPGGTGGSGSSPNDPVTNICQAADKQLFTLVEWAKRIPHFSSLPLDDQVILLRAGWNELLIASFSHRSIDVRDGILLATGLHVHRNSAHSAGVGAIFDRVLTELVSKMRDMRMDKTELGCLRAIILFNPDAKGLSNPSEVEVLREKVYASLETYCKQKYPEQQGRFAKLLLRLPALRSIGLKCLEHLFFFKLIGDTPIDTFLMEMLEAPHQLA
Described as §1.

The target in experiment [4] is T4, Retinoic acid receptor RXR-alpha (Homo sapiens, UniProt P19793).
T4 sequence (P19793 whole entry): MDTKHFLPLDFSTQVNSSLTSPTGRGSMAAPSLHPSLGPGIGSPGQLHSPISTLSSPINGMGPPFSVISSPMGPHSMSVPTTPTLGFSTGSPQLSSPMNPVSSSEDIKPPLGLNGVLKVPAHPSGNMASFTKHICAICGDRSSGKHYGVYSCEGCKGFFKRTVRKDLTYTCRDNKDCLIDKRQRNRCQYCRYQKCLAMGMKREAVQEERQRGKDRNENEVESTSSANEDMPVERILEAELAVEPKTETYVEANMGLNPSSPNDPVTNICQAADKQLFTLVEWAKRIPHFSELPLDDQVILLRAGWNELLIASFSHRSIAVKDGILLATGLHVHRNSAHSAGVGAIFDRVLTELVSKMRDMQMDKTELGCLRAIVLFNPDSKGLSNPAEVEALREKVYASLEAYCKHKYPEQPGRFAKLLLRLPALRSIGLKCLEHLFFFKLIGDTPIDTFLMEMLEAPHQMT
Put plainly: Compound was tested for binding affinity against retinoid X receptor using 5 nM of [3H]-9-cis-RA as a radioligand in baculovirus expressed receptor.

Experiment [5] deals with T3, Retinoic acid receptor RXR-beta. Put plainly: Compound was tested for functional activity in CV-1 cells transfected with an expression vector for retinoid X receptor beta using transactivation assay. The format is cell-based.
In experiment [6] the target is T2, Retinoic acid receptor RXR-gamma. The experiment in a line: Compound was tested for functional activity in CV-1 cells transfected with an expression vector for retinoid X receptor gamma using transactivation assay. Type of experiment: cell-based.
In experiment [7] the target is T4, Retinoic acid receptor RXR-alpha. The experiment in a line: Compound was tested for functional activity in CV-1 cells transfected with an expression vector for retinoid X receptor alpha using transactivation assay. Type of experiment: cell-based.
The target of experiment [8] is T5, Retinoic acid receptor gamma (Homo sapiens, UniProt P13631).
T5 sequence (P13631 whole entry): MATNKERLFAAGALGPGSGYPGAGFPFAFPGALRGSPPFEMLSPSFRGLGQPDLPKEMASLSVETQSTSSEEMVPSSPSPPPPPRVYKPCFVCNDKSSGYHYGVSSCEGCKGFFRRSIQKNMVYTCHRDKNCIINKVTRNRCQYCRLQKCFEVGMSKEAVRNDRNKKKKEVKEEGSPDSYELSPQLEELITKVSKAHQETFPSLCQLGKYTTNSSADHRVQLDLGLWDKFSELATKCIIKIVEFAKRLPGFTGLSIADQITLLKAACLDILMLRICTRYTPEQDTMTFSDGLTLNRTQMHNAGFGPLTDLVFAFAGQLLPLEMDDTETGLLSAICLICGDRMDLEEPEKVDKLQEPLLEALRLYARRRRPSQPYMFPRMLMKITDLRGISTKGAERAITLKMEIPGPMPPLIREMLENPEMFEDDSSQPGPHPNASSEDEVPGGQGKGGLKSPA
The experiment in a line: Compound was tested for functional activity in CV-1 cells transfected with an expression vector for retinoic acid receptor gamma using transactivation assay. Type of experiment: cell-based.

Experiment [9] concerns the target T6, Retinoic acid receptor alpha (Homo sapiens, UniProt P10276).
T6 sequence (P10276 whole entry): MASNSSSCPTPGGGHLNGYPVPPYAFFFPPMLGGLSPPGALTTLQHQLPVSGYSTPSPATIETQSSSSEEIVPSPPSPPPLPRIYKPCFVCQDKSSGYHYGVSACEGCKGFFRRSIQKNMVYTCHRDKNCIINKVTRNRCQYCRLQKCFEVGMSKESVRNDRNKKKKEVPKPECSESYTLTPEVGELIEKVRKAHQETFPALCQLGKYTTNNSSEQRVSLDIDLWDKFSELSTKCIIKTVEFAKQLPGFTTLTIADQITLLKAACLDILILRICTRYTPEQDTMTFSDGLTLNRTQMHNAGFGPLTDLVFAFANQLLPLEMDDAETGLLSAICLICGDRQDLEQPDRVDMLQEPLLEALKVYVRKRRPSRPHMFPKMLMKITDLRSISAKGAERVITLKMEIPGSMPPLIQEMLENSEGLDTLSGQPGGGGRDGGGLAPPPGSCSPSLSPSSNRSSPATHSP
The experiment in a line: Compound was tested for functional activity in CV-1 cells transfected with an expression vector for retinoic acid receptor alpha using transactivation assay. Type of experiment: cell-based.

Experiment [10] addresses T1, Retinoic acid receptor beta. Put plainly: (§2) Compound was tested for binding affinity against retinoic acid receptor using 5 nM of [3H]RA as a radioligand in baculovirus expressed receptor.
The target of experiment [11] is T5, Retinoic acid receptor gamma. Described as §2.
The target in experiment [12] is T6, Retinoic acid receptor alpha. The experiment is described as §2.

Turning to `CC(=CC(=O)O)/C=C/C1CC1(C)c1cc2c(cc1C)C(C)(C)CCC2(C)C` (centres undefined), the EC50 in experiment [1], in experiment [5], in experiment [6], in experiment [7], in [8] and in experiment [9] was above 1 µM each time. The Kd in [2], in experiment [3], in [4], in experiment [10], in experiment [11] and in experiment [12] was above 1 µM each time.
On to `CC(/C=C/C1CC1(C)c1cc2c(cc1C)C(C)(C)CCC2(C)C)=C\C(=O)O` (centres undefined), for which the EC50 – broadly, the concentration giving half of the maximal effect – in [1] was above 1 µM; in experiment [5] it was 0.1 µM; in experiment [6] it was 0.071 µM; in experiment [7], 0.13 µM; in [8] it was above 1 µM; in experiment [9] it was above 1 µM. In addition, the Kd (in general, the constant that tells how readily two partners part at equilibrium) in experiment [2] is 0.042 µM; in experiment [3], 0.056 µM; in experiment [4], 0.071 µM; in experiment [10], above 1 µM; in experiment [11] it was above 1 µM; in [12] it was above 1 µM.
